From the supplement of paper PMC10307832

Columns and labels:
Assay in all cases: relative viability (nuclei count vs DMSO), 5 days (fraction); higher = more cells survive
NCI-H1755 = test system: NCI-H1755
Procedure, shortened: (§1)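 Lung cancer cell lines in 1536-well plates were dosed by pin tool the day after seeding, either with one drug alone or with a fixed anchor-drug dose plus five library-drug doses (not always all listed) in √10 steps. After 5 days, cells were fixed and their nuclei stained in one step (final 0.05% Triton X-100, 1% formaldehyde, 1 ug/ml Hoechst), then counted on 4× images. Relative viability is the nuclei count in treated wells divided by that in vehicle wells. Values are medians of duplicate plates.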

NCI-H1734 = test system: NCI-H1734
Procedure, shortened: as §1

NCI-H1793 = test system: NCI-H1793
Procedure, shortened: as §1

PC-3 [JPC-3] = test system: PC-3 [JPC-3]
Procedure, shortened: as §1

NCI-H1944 = test system: NCI-H1944
Procedure, shortened: as §1

NCI-H2228 = test system: NCI-H2228
Procedure, shortened: as §1

UMC-11 = test system: UMC-11
Procedure, shortened: as §1

EPLC-272H = test system: EPLC-272H
Procedure, shortened: as §1

NCI-H1651 = test system: NCI-H1651
Procedure, shortened: as §1

NCI-H2405 = test system: NCI-H2405
Procedure, shortened: as §1

NCI-H1395 = test system: NCI-H1395
Procedure, shortened: as §1

NCI-H2087 = test system: NCI-H2087
Procedure, shortened: as §1

ChaGo-K-1 = test system: ChaGo-K-1
Procedure, shortened: as §1

HCC-366 = test system: HCC-366
Procedure, shortened: as §1

LU99A = test system: LU99A
Procedure, shortened: as §1

LC-2-ad = test system: LC-2-ad
Procedure, shortened: as §1

NCI-H3122 = test system: NCI-H3122
Procedure, shortened: as §1

NCI-H2170 = test system: NCI-H2170
Procedure, shortened: as §1

RERF-LC-KJ = test system: RERF-LC-KJ
Procedure, shortened: as §1

LOU-NH91 = test system: LOU-NH91
Procedure, shortened: as §1

CAL-12T = test system: CAL-12T
Procedure, shortened: as §1

ABC-1 = test system: ABC-1
Procedure, shortened: as §1

HCC-78 = test system: HCC-78
Procedure, shortened: as §1

NCI-H460 = test system: NCI-H460
Procedure, shortened: as §1

C[C@@H]1CN(CC(=O)Nc2ccc3c(c2)Cc2cccc(-c4cc(=O)cc(N5CCOCC5)o4)c2S3)C[C@H](C)O1 + CC(=O)c1c(C)c2cnc(Nc3ccc(N4CCNCC4)cn3)nc2n(C2CCCC2)c1=O [Palbociclib] (partner 0.5 µM)
relative viability (NCI-H1755; first compound 0.04 µM): 0.475 | relative viability (NCI-H1755; first compound 0.1265 µM): 0.449 | relative viability (NCI-H1755; first compound 0.4 µM): 0.432 | relative viability (NCI-H1755; first compound 4 µM): 0.399 | relative viability (NCI-H1734; first compound 0.04 µM): 0.386 | relative viability (NCI-H1734; first compound 0.1265 µM): 0.354 | relative viability (NCI-H1734; first compound 0.4 µM): 0.308 | relative viability (NCI-H1734; first compound 4 µM): 0.433 | relative viability (NCI-H1793; first compound 0.04 µM): 0.297 | relative viability (NCI-H1793; first compound 0.1265 µM): 0.323 | relative viability (NCI-H1793; first compound 0.4 µM): 0.296 | relative viability (NCI-H1793; first compound 4 µM): 0.2 | relative viability (PC-3 [JPC-3]; first compound 0.04 µM): 0.501 | relative viability (PC-3 [JPC-3]; first compound 0.1265 µM): 0.515 | relative viability (PC-3 [JPC-3]; first compound 0.4 µM): 0.535 | relative viability (PC-3 [JPC-3]; first compound 4 µM): 0.477 | relative viability (NCI-H1944; first compound 0.1265 µM): 0.343 | relative viability (NCI-H1944; first compound 0.4 µM): 0.344 | relative viability (NCI-H1944; first compound 4 µM): 0.354 | relative viability (NCI-H2228; first compound 0.04 µM): 0.993 | relative viability (NCI-H2228; first compound 0.1265 µM): 0.743 | relative viability (NCI-H2228; first compound 0.4 µM): 0.916 | relative viability (NCI-H2228; first compound 4 µM): 0.605 | relative viability (UMC-11; first compound 0.04 µM): 0.33 | relative viability (UMC-11; first compound 0.1265 µM): 0.332 | relative viability (UMC-11; first compound 0.4 µM): 0.321 | relative viability (UMC-11; first compound 4 µM): 0.338 | relative viability (EPLC-272H; first compound 0.04 µM): 0.38 | relative viability (EPLC-272H; first compound 0.1265 µM): 0.388 | relative viability (EPLC-272H; first compound 0.4 µM): 0.331 | relative viability (EPLC-272H; first compound 4 µM): 0.321 | relative viability (NCI-H1651; first compound 0.04 µM): 0.543 | relative viability (NCI-H1651; first compound 0.1265 µM): 0.502 | relative viability (NCI-H1651; first compound 0.4 µM): 0.51 | relative viability (NCI-H1651; first compound 4 µM): 0.527 | relative viability (NCI-H2405; first compound 0.04 µM): 0.564 | relative viability (NCI-H2405; first compound 0.1265 µM): 0.521 | relative viability (NCI-H2405; first compound 0.4 µM): 0.486 | relative viability (NCI-H2405; first compound 4 µM): 0.506 | relative viability (NCI-H1395; first compound 0.1265 µM): 0.626 | relative viability (NCI-H1395; first compound 0.4 µM): 0.575 | relative viability (NCI-H1395; first compound 4 µM): 0.595 | relative viability (NCI-H2087; first compound 0.04 µM): 0.213 | relative viability (NCI-H2087; first compound 0.1265 µM): 0.253 | relative viability (NCI-H2087; first compound 0.4 µM): 0.244 | relative viability (NCI-H2087; first compound 4 µM): 0.267 | relative viability (ChaGo-K-1; first compound 0.04 µM): 0.902 | relative viability (ChaGo-K-1; first compound 0.1265 µM): 0.924 | relative viability (ChaGo-K-1; first compound 0.4 µM): 0.925 | relative viability (ChaGo-K-1; first compound 4 µM): 0.898 | relative viability (HCC-366; first compound 0.04 µM): 0.386 | relative viability (HCC-366; first compound 0.1265 µM): 0.467 | relative viability (HCC-366; first compound 0.4 µM): 0.395 | relative viability (HCC-366; first compound 4 µM): 0.184 | relative viability (LU99A; first compound 0.04 µM): 0.387 | relative viability (LU99A; first compound 0.1265 µM): 0.404 | relative viability (LU99A; first compound 0.4 µM): 0.449 | relative viability (LU99A; first compound 4 µM): 0.445 | relative viability (LC-2-ad; first compound 0.04 µM): 0.493 | relative viability (LC-2-ad; first compound 0.1265 µM): 0.465 | relative viability (LC-2-ad; first compound 0.4 µM): 0.466 | relative viability (LC-2-ad; first compound 4 µM): 0.419 | relative viability (NCI-H3122; first compound 0.04 µM): 0.214 | relative viability (NCI-H3122; first compound 0.1265 µM): 0.201 | relative viability (NCI-H3122; first compound 0.4 µM): 0.176 | relative viability (NCI-H3122; first compound 4 µM): 0.161 | relative viability (NCI-H2170; first compound 0.04 µM): 0.399 | relative viability (NCI-H2170; first compound 0.1265 µM): 0.436 | relative viability (NCI-H2170; first compound 0.4 µM): 0.416 | relative viability (NCI-H2170; first compound 4 µM): 0.36 | relative viability (RERF-LC-KJ; first compound 0.04 µM): 1.03 | relative viability (RERF-LC-KJ; first compound 0.1265 µM): 1.05 | relative viability (RERF-LC-KJ; first compound 0.4 µM): 1.17 | relative viability (RERF-LC-KJ; first compound 4 µM): 0.818 | relative viability (LOU-NH91; first compound 0.04 µM): 0.536 | relative viability (LOU-NH91; first compound 0.1265 µM): 0.481 | relative viability (LOU-NH91; first compound 0.4 µM): 0.55 | relative viability (LOU-NH91; first compound 4 µM): 0.509 | relative viability (CAL-12T; first compound 0.04 µM): 0.53 | relative viability (CAL-12T; first compound 0.1265 µM): 0.411 | relative viability (CAL-12T; first compound 0.4 µM): 0.44 | relative viability (CAL-12T; first compound 4 µM): 0.28 | relative viability (ABC-1; first compound 0.04 µM): 0.376 | relative viability (ABC-1; first compound 0.1265 µM): 0.673 | relative viability (ABC-1; first compound 0.4 µM): 0.634 | relative viability (ABC-1; first compound 4 µM): 0.811 | relative viability (HCC-78; first compound 0.04 µM): 0.456 | relative viability (HCC-78; first compound 0.1265 µM): 0.458 | relative viability (HCC-78; first compound 0.4 µM): 0.48 | relative viability (HCC-78; first compound 4 µM): 0.487 | relative viability (NCI-H460; first compound 0.04 µM): 0.271 | relative viability (NCI-H460; first compound 0.1265 µM): 0.155 | relative viability (NCI-H460; first compound 0.4 µM): 0.137 | relative viability (NCI-H460; first compound 4 µM): 0.143
